Results on 9 compounds are retold here after patent US9914755B2, “Cyclosporin derivatives wherein the MeBmt sidechain has been cyclized” (Allergan, Inc., priority 2015, dated 2018).

In data set [1] the target is T1, Human recombinant cyclophilin A (CypA) (Homo sapiens, UniProt P62937).
T1 construct: purchased Sigma C3805
Briefly: Protease-free PPIase assay, cyclophilin A. The format is biochemical. As to conditions: human recombinant CypA, 10 °C, SUC-AAPF-pNA substrate; read-out: CypA Protease-free PPIase Assay Ki. On the procedure:
(§1) Protease-Free PPIase Assay The protease-free PPIase assay measures the rate of cis to trans conversion of a peptide substrate catalyzed by the enzyme cyclophilin A or D. Addition of a cyclophilin inhibitor (e.g., a test compound) slows the catalyzed rate and a Ki value is obtained. 35 mM HEPES pH 7.8, filtered through a 0.2 μm filter. 50 μM DTT was added prior to use each day and then the buffer was stored on ice. […] Human recombinant 6-His tagged cyclophilin D (CypD), prepared by the University of Edinburgh, was used to generate CypD inhibition data. Succinimide-[…]-nitroanilide (SUC-AAPF-pNA) (from Bachem AG, L-1400), 20 mg/ml prepared in 0.5 M LiCl in trifluoroethanol. All readings were taken with an Agilent 8453 Spectrophotometer which consisted of a cuvette holder, stirrer and chiller to maintain a stirred cuvette temperature of 10.0±0.1° C. The temperature was monitored by the use of temperature probe. […] The inhibitor was diluted in 100% DMSO, and then added to the assay to a maximum final concentration of 0.5% DMSO in the assay. […] The absorbance was measured at 330 nm for 300 s or 500 s for blank runs (NOTE: the substrate was added in one quick injection and the measurements started immediately to minimize mixing errors). A first order rate equation was fitted to the absorbance data, for each concentration of inhibitor, to obtain the rate constant (the first 10 to 15 seconds were excluded, as mixing causes errors in this portion of the curve). The catalytic rate was calculated from the enzymatic rate constant minus the background rate constant. An exponential curve was generated using the catalytic rate constants versus the inhibitor concentration to obtain the Ki value for the inhibitor. The Ki value is indicative of the binding affinity between the test compound and cyclophilin A.

Data set [2] deals with T2, Human recombinant 6-His tagged cyclophilin D (CypD) (Homo sapiens, UniProt P30405).
T2 construct: 6-His
Briefly: Protease-free PPIase assay, cyclophilin D. The format is biochemical. As to conditions: human recombinant 6-His CypD, 10 °C, SUC-AAPF-pNA substrate; read-out: CypD Protease-free PPIase Assay Ki. As for the experimental part: as §1

For data set [3], the target named is T3, calcineurin (Homo sapiens, UniProt P62937+P63098+Q08209).
T3 construct: purchased Enzo Life Sciences BML-AK804
Briefly: Calcineurin Phosphatase (CaN) Assay. The format is biochemical. As to conditions: in the presence of CypA, 1:1 complex of inhibitor with CypA. The source says: Calcineurin Phosphatase (CaN) Assay
The calcineurin phosphatase assay is a means for estimating the immunosuppressive potential of a test compound. Calcineurin is a serine-threonine protein phosphatase that on activation dephosphorylates members of the nuclear factor of activated T cells (NFAT), which are important in T lymphocyte activation.
To investigate the immunosuppressive potential of exemplary compounds of Formula I, which are cyclosporin analogs, their ability to inhibit calcineurin activity was measured in the presence and absence of CypA.
The CaN assay kit used is based on a colorimetric assay for measuring calcineurin phosphatase activity, and it is commercially available (Enzo Life Sciences and Calbiochem). Calmodulin is also required for calcineurin activity, and RII phosphopeptide is used as an efficient peptide substrate for calcineurin. […] The detection of free phosphate released is based on the classic Malachite green assay.
Enzo Life Sciences CaN Assay Kit: BML-AK804
For samples ‘without CypA’, a 4-point dilution series of the inhibitor was prepared in duplicate to obtain a final assay concentration of 10, 1, 0.1 and 0.01 μM. For samples ‘with CypA’, a 7-point dilution series was prepared to obtain a 1:1 complex of the inhibitor with CypA; the inhibitor and CypA final assay concentrations of 10, 3.33, 1.11, 0.37, 0.12, 0.04, 0.014 μM were prepared.
using the half area 96 well plates supplied with the kit, 10 μl UPW was added to duplicate wells to provide the non-inhibited control. 10 μl of the inhibitor or the inhibitor/CypA complex was added to the appropriate sample wells. 25 μl of the 2× assay buffer with calmodulin (CaM) was added to all wells, then 5 μl of calcineurin phosphatase (CaN) was added to all wells (40 U per well final concentration) except duplicate ‘no calcineurin blank’ wells to which 5 μL 1× assay buffer was added. The assay plate was placed in an oven at 30° C. for 15 minutes to equilibrate to the reaction temperature. The reaction was started by the addition of 10 μl RII-peptide (0.15 mM final concentration). The reaction was allowed to proceed at 30° C. for a time period in which the reaction is linear for about 60 minutes. The reaction was then terminated by adding 100 μl of the Malachite Green reagent. The color was allowed to develop for 15-30 minutes at room temperature before the absorbance at 620 nm was measured using a plate reader (Molecular Devices—SpectraMax M5). The data were analyzed by subtracting ‘no calcineurin blank’ from all the absorbance readings and plotting the background corrected absorbances against Log10 inhibitor concentration. A sigmoidal-dose response curve was fitted to the data using GraphPad Prism Software.
It exerts its immunosuppressive activity by binding to CypA to form a complex, which then binds to calcineurin and thereby inhibits calcineurin activity.

Data set [4] can be described thus: physchem. To be noted: 25 °C, pH 7.4, aqueous buffer, kinetic from dmso stock.
Protocol: The aqueous solubility of a compound of Formula I in buffer (pH 7.8) was measured by recording the onset of precipitation of the compound as a function of increasing concentration. The onset of precipitation, if it occurred, was detected by an increase in absorbance at 650 nm.
Stock solutions of Control and Test Compounds: 10 mM in 100% DMSO.
10 mM stock solutions of control and test compounds were prepared in 100% DMSO.
Assay buffer (247.5 μl) was placed into a flat bottomed transparent 96-well plate. For blank samples, DMSO (2.5 μl) was added. For test and control samples, 2.5 μl of the appropriate DMSO dilution stocks were added to the appropriate well. All test and control compounds were performed in triplicate.
The plates were sealed with adhesive plate seal and shaken at 250 rpm at 25° C. for 18 h on a plate shaker. After incubation, the plate seals were taken off and any bubbles observed in wells removed. The plates were read on a SpectraMaxM5 with a 5 s pre-shake at 650 nm.
Data files were transferred to the appropriate worksheet and the solubility range of the compounds was calculated from the data.

Converted amounts (≈) assume the structure as drawn. Starred links: 1 amine or outer side, 2 acyl side, 3 side chain; linkers in the order of their positions; H or OH if unused. Non-standard residues stand in square brackets, D forms with d. Residues, ends and D or L forms follow the SMILES beside them. X2 = C[C@@H]1CC(O)O[C@H]1[C@H](C(=O)[*:2])N(C)[*:1]; X1 = C[C@@H]1CCO[C@H]1[C@H](C(=O)[*:2])N(C)[*:1]; NMeL = CN[C@@H](CC(C)C)C(=O)O; dNMeL = CN[C@H](CC(C)C)C(=O)O; dNMeV = CN[C@@H](C(=O)O)C(C)C; dNMeA = CN[C@H](C)C(=O)O

T1 sequence (P62937 whole entry): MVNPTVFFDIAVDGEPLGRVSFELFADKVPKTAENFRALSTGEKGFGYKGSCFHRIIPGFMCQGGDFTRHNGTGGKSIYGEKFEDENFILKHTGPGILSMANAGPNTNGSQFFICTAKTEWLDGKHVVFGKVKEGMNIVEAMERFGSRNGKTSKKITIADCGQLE
T2 sequence (P30405 30-207): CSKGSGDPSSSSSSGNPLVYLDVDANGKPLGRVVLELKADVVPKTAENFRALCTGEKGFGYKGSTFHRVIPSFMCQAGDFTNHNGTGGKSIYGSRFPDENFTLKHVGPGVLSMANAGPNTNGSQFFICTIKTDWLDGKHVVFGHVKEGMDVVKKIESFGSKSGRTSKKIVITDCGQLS

Consider `CC[C@H]1NC(=O)[C@@H]([C@@H]2OCC[C@H]2C)N(C)C(=O)[C@@H](C(C)C)N(C)C(=O)[C@@H](CC(C)C)N(C)C(=O)[C@@H](CC(C)C)N(C)C(=O)[C@H](C)NC(=O)[C@@H](C)NC(=O)[C@@H](CC(C)C)N(C)C(=O)[C@@H](C(C)C)NC(=O)[C@H](CC(C)C)N(C)C(=O)[C@@H](C)N(C)C1=O` [Compound 3, [(2S)-2-(methylamino)-2-[(2R,3R)-3-methyltetrahydrofuran-2-yl]acetic acid]^1 [(R)-methyl-Sar]^3 cyclosporin A], for which the figures for the inhibition constant Ki in data set [1] and in data set [2] were 95 nM and 4.4 nM, respectively. In addition, the half-maximal inhibitory concentration (IC50) in data set [3] is more than 10000 nM. Also, the solubility at 18 h in data set [4] is more than 100 µM.

Regarding `CC[C@H]1NC(=O)[C@@H]([C@@H]2OCC[C@H]2C)N(C)C(=O)[C@@H](C(C)C)N(C)C(=O)[C@@H](CC(C)C)N(C)C(=O)[C@@H](CC(C)C)N(C)C(=O)[C@H](C)NC(=O)[C@@H](C)NC(=O)[C@@H](CC(C)C)N(C)C(=O)[C@@H](C(C)C)NC(=O)[C@H](CC(C)C)N(C)C(=O)[C@@H](C(F)F)N(C)C1=O` [Compound 5, [(2S)-2-(methylamino)-2-[(2R,3R)-3-methyltetrahydrofuran-2-yl]acetic acid]^1 [(S)-difluoromethyl-Sar]^3 cyclosporin A], the inhibition constant Ki was 198 nM in data set [1] and 14.5 nM in data set [2]. For the same compound, the IC50 in data set [3] was more than 10000 nM. Moreover, the concentration in solution in data set [4] (solubility at 18 h) was 50 µM (≈ 61.2 µg/mL).

Take `CC(C)C[C@@H]1C(=O)N(C)[C@H](CC(C)C)C(=O)N(C)[C@H](C(C)C)C(=O)N(C)[C@H]([C@@H]2OCC[C@H]2C)C(=O)N[C@H](C(C)C)C(=O)N(C)[C@H](C)C(=O)N(C)[C@@H](CC(C)C)C(=O)N[C@H](C(C)C)C(=O)N(C)[C@H](CC(C)C)C(=O)N[C@H](C)C(=O)N[C@@H](C)C(=O)N1C` [Compound 6, [(2S)-2-(methylamino)-2-[(2R,3R)-3-methyltetrahydrofuran-2-yl]acetic acid]^1 [(R)-methyl-Sar]^3 cyclosporin D] (cyclo(A[dNMeL][dNMeL][dNMeV][X1][dV][dNMeA][NMeL][dV][dNMeL][dA])): the inhibition constant Ki in data set [1] came to 5.6 nM; in data set [2], 1.9 nM. The IC50 in data set [3] was more than 10000 nM. Moreover, the solubility at 18 h in data set [4] was found to be 50 µM (≈ 60.1 µg/mL).

Take `CC(C)C[C@@H]1C(=O)N(C)[C@H](CC(C)C)C(=O)N(C)[C@H](C(C)C)C(=O)N(C)[C@H]([C@@H]2OCC[C@H]2C)C(=O)N[C@H](C(C)C)C(=O)N(C)CC(=O)N(C)[C@@H](CC(C)C)C(=O)N[C@H](C(C)C)C(=O)N(C)[C@H](CC(C)C)C(=O)N[C@H](C)C(=O)N[C@@H](C)C(=O)N1C` [Compound 7, [(2S)-2-(methylamino)-2-[(2R,3R)-3-methyltetrahydrofuran-2-yl]acetic acid]^1 cyclosporin D]: the inhibitory constant (Ki) in data set [1] amounted to 400 nM; in data set [2] it was 81 nM. Besides, in data set [3], the half-maximal inhibitory concentration (IC50) was more than 10000 nM. For the same compound, the solubility at 18 h in data set [4] came out at 75 µM (≈ 89.1 µg/mL).

As for `CC(C)C[C@@H]1C(=O)N(C)[C@H](CC(C)C)C(=O)N(C)[C@H](C(C)C)C(=O)N(C)[C@H]([C@@H]2OCC[C@H]2C)C(=O)N[C@H]([C@@H](C)O)C(=O)N(C)CC(=O)N(C)[C@@H](CC(C)C)C(=O)N[C@H](C(C)C)C(=O)N(C)[C@H](CC(C)C)C(=O)N[C@H](C)C(=O)N[C@@H](C)C(=O)N1C` [Compound 8, [(2S)-2-(methylamino)-2-[(2R,3R)-3-methyltetrahydrofuran-2-yl]acetic acid]^1 cyclosporin C], the inhibition constant Ki in data set [1] was determined as 1500 nM; in data set [2], 105 nM. In data set [3], the IC50 is more than 10000 nM. The compound further registered a solubility at 18 h in data set [4] of more than 100 µM.

Regarding `CC(C)C[C@@H]1C(=O)N(C)[C@H](CC(C)C)C(=O)N(C)[C@H](C(C)C)C(=O)N(C)[C@H]([C@@H]2OCC[C@H]2C)C(=O)N[C@H](C)C(=O)N(C)[C@H](C)C(=O)N(C)[C@@H](CC(C)C)C(=O)N[C@H](C(C)C)C(=O)N(C)[C@H](CC(C)C)C(=O)N[C@H](C)C(=O)N[C@@H](C)C(=O)N1C` [Compound 10, [(2S)-2-(methylamino)-2-[(2R,3R)-3-methyltetrahydrofuran-2-yl]acetic acid]^1 [(R)-methyl-Sar]^3 cyclosporin B] (cyclo(A[dNMeL][dNMeL][dNMeV][X1][dA][dNMeA][NMeL][dV][dNMeL][dA])), the Ki came to 2000 nM in data set [1] and 680 nM in data set [2]. Moreover, the IC50 in data set [3] is more than 10000 nM. Also, the solubility at 18 h in data set [4] was more than 100 µM.

With `CC(C)C[C@@H]1C(=O)N(C)[C@H](CC(C)C)C(=O)N(C)[C@H](C(C)C)C(=O)N(C)[C@H]([C@@H]2OC(O)C[C@H]2C)C(=O)N[C@H](C(C)C)C(=O)N(C)[C@H](C)C(=O)N(C)[C@@H](CC(C)C)C(=O)N[C@H](C(C)C)C(=O)N(C)[C@H](CC(C)C)C(=O)N[C@H](C)C(=O)N[C@@H](C)C(=O)N1C` (stereo partly drawn) [Compound 14, [(2S)-2-[(2R,3R)-5-Hydroxy-3-methyl-tetrahydrofuran-2-yl]-2-(methylamino)acetic acid]^1 [(R)-methyl-Sar]^3 cyclosporin D] (cyclo(A[dNMeL][dNMeL][dNMeV][X2][dV][dNMeA][NMeL][dV][dNMeL][dA])), the inhibition constant (Ki) in data set [1] turned out to be 20.4 nM; in data set [2], 8.4 nM. Moreover, the IC50 in data set [3] is more than 10000 nM. The compound further gave a solubility at 18 h in data set [4] of more than 100 µM.

For `CC[C@H]1NC(=O)[C@H]([C@H]2OCC[C@H]2C)N(C)C(=O)[C@@H](C(C)C)N(C)C(=O)[C@@H](CC(C)C)N(C)C(=O)[C@@H](CC(C)C)N(C)C(=O)[C@H](C)NC(=O)[C@@H](C)NC(=O)[C@@H](CC(C)C)N(C)C(=O)[C@@H](C(C)C)NC(=O)[C@H](CC(C)C)N(C)C(=O)[C@@H](C)N(C)C1=O` [Compound 18, [(2S)-2-(methylamino)-2-[(2S,3R)-3-methyltetrahydrofuran-2-yl]acetic acid]^1 [(R)-methyl-Sar]^3 cyclosporin A], the Ki in data set [1] came to 79 nM; in data set [2] it was 15 nM. The concentration for half-maximal inhibition (IC50) in data set [3] is more than 10000 nM. This compound also had a solubility at 18 h in data set [4] of 25 µM (≈ 29.7 µg/mL).

Consider `CC[C@H]1NC(=O)[C@H]([C@@H]2[C@H](C)CCN2C)N(C)C(=O)[C@@H](C(C)C)N(C)C(=O)[C@@H](CC(C)C)N(C)C(=O)[C@@H](CC(C)C)N(C)C(=O)[C@H](C)NC(=O)[C@@H](C)NC(=O)[C@@H](CC(C)C)N(C)C(=O)[C@@H](C(C)C)NC(=O)[C@H](CC(C)C)N(C)C(=O)[C@@H](C)N(C)C1=O` [Compound 19, [(2S)-2-[(2S,3R)-1,3-dimethylpyrrolidin-2-yl]-2-(methylamino)acetic acid]^1 [(R)-methyl-Sar]^3 cyclosporin A], for which the Ki was found to be 404 nM in data set [1] and 130 nM in data set [2]. Moreover, the half-inhibitory concentration (IC50) in data set [3] is 8990 nM. This compound had a solubility at 18 h in data set [4] of more than 100 µM.

The Ki is the dissociation constant of the complex between target and ligand, obtained from inhibition or displacement. For orientation: IC50 means the concentration that gives 50% inhibition. Broadly, the solubility is the concentration that dissolves in the medium under given conditions. Read a high solubility as a readily soluble substance.
